Experimental data reported in US4621101A, “Pharmaceutical compositions with antianginal activity” (Egis Gyogyszergyar, priority 1984, dated 1986).
Like-named read-outs stand apart in the source and are kept apart here.

What was measured:
[1] = Antianginal effect in rats after intravenous administration, method of Nieschulz, Popendiker and Hofmann; assay type: in vivo; details: Rattus norvegicus
[2] = Acute intravenous toxicity (LD50) and therapeutic index, Table II; details: in vivo; for selectivity ratio: from LD50 and ED50, iv.; for LD50: iv.

Row | SMILES | ED50 ([1]; read-out: ED50) | selectivity ratio [2] | LD50 [2] | ED50 [1]
1 | CC(C)N(CCCO/N=C1\CCCC\C1=C/c1ccc(Cl)cc1)C(C)C [compound F, 2-[(E)-(4-chlorophenyl)-methylene]-1-[(E)-(3-diisopropylamino)-propyloxyimino]-cyclohexane] | 0.35 mg/kg | 120 | 42 mg/kg | 
2 | CC(C)N(CCCO/N=C1\CCCC\C1=C/c1ccccc1)C(C)C [compound G, 2-[(E)-phenylmethylene]-1-[(E)-(3-diisopropylaminopropyloxyimino)]-cyclohexane] | 0.38 mg/kg | 32.9 | 12.5 mg/kg | 
3 | CC(Cc1ccccc1)NCCC(c1ccccc1)c1ccccc1 (stereo not drawn) [Prenylamine, N-3,3-di-phenylpropyl-1-methylphenyl-ethylamine, reference compound] |  | 1.77 | 11.5 mg/kg | 6.5 mg/kg
4 | CN(C)CCO/N=C1\CCCCCC1Cc1ccccc1 (stereo not drawn) [compound D, 2-benzyl-1-[(E)-(2-dimethylamino-ethoxyimino)]-cycloheptane] | 0.52 mg/kg | 76.9 | 40 mg/kg | 
